Test results taken from patent USRE47193E1, “Selectively substituted quinoline compounds” (EISAI R&D MANAGEMENT CO., LTD., priority 2013, dated 2019).

Legend:
[1] = test system: Human TLR7/8; test: Human PBMC cell-based assay, TLR7/8 stimulus (RNA-Ig), cytokine ELISA; conditions: primary human PBMC assay, TLR7/8 potency; ligand not given; read-out: Human PBMCs IC50
Outline: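 The agonist was RNA-Ig, a U1 snRNA-derived 26-mer RNA (2.5 μM) complexed with RNA-cross-reacting anti-ssDNA mAb (1:25 or 1 ug/ml), added after 30 min compound pre-incubation (0.1% DMSO). Density-gradient PBMC from healthy donors, 2×10^5/well, were stimulated 20 h at 37 °C; cytokines quantified by ELISA.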

[2] = test system: Mouse Splenocytes; test: Mouse spleen cell-based assay (R848, IL-6 ELISA); conditions: BALB/c spleen cells, 370 nM R848
Experimental: Mouse Spleen cell-based assay. Spleens were harvested from female BALB/c mice (Jackson Labs, Bar Harbor, Me.) euthanized by CO2. A single cell suspension was obtained by passing spleens through a 40 μm an nylon cell strainer. Cells were washed twice with 50 ml PBS (Mediatech, Inc., Manassas, Va.) and red blood cells were lysed in 5 ml RBC Lysis buffer (eBioscience, Inc., San Diego, Calif.) for 5 minutes at room temperature. Cells were washed twice more in PBS and finally resuspended in supplemented RPMI-1640 at 2.5×10^6 cells/ml. Cells were plated at 100 μl/well (2.5×10^5 cells/well) in 96-well tissue culture treated plates (Falcon). Serial dilutions of compounds solubilized in 100% DMSO were added in triplicate to cells to yield a final concentration of 0.1% DMSO. Cells were incubated with compound for 30 minutes at 37° C., 5% CO2 before adding 100 μl/well of 740 nM R848 (Resiquimod; GLSynthesis, Worcester, Mass.) in complete media for a final concentration of 370 nM R848. Cells were incubated for 20 hours at 37° C., 5% CO2. Culture supernatants were collected, and levels of IL-6 were assessed by standard ELISA procedure according to the manufacturer's recommended protocol (BD Biosciences, Inc., San Diego, Calif.).

[3] = biological target: T1, mouse TLR7 (Mus musculus, UniProt P58681); test: Short-term in vivo (STIV) assay: oral dosing, R848 s.c., plasma IL-6; set-up: female BALB/c mice (Jackson Labs, Bar Harbor, Me.) were dosed by oral gavage; tissue Jackson Labs; host or cells: living female BALB/c mice; plasma IL-6 after s.c. R848
T1 sequence (P58681 27-1050): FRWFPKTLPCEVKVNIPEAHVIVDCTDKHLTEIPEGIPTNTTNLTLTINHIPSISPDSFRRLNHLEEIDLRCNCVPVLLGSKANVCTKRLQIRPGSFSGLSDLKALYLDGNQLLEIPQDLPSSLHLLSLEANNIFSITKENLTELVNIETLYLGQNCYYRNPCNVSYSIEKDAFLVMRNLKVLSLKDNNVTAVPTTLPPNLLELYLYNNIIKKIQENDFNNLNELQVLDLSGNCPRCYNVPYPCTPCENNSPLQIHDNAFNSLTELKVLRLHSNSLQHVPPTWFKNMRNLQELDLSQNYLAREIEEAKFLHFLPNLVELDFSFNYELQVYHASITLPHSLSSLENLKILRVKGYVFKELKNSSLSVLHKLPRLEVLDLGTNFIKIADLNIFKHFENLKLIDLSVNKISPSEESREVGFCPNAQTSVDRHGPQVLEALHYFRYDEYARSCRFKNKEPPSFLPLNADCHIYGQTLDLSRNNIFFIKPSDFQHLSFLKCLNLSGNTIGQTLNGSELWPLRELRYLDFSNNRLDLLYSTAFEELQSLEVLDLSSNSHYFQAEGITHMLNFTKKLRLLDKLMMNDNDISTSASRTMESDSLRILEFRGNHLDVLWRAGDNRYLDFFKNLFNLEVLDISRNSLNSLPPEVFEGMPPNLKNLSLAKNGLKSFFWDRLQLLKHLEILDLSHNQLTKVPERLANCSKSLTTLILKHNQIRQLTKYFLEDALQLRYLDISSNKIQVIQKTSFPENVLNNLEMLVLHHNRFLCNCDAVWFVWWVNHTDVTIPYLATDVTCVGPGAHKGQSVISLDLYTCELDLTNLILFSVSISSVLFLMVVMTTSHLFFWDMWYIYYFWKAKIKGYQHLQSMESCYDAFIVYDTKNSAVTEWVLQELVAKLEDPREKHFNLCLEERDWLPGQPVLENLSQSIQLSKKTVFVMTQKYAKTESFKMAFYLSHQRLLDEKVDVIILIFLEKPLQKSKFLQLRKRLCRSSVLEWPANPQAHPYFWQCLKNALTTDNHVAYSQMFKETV
Outline: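 Female BALB/c mice (6–8 weeks) dosed orally with compound in 0.5% aqueous methyl-cellulose at 33, 100 or 300 mg/kg; at various times afterwards given 15 ug R848 s.c. to stimulate TLR7. Plasma IL-6 measured by ELISA to gauge potency and duration of action.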

Structure (SMILES) | IC50 [1] [nM] | IC50 ([2]; Mus musculus, Splenocyte) [nM] | % Suppression vs. Vehicle ([3]; 6 h, 33 mg/kg) [%] | % Suppression vs. Vehicle ([3]; 6 h, 100 mg/kg) [%] | % Suppression vs. Vehicle ([3]; 19 h, 100 mg/kg) [%] | further results
CC1CN(c2ccc(C#N)c3ncccc23)CC(CN2CCNCC2C)O1 (centres unmarked) [ER-887268] | 5 | 2120 | 98 | 99 | 95 | % Suppression vs. Vehicle ([3]; 6 h, 11 mg/kg): 80%; % Suppression vs. Vehicle ([3]; 19 h, 11 mg/kg): 25%; % Suppression vs. Vehicle ([3]; 19 h, 33 mg/kg): 63%
C[C@@H]1CN(c2ccc(C#N)c3ncccc23)C[C@H](CN2CCC(N)CC2)O1 [ER-888070] | 3 | 76 | 88 | 100 | 90 | % Suppression vs. Vehicle ([3]; 6 h, 300 mg/kg): 100%; % Suppression vs. Vehicle ([3]; 19 h, 33 mg/kg): 70%; % Suppression vs. Vehicle ([3]; 19 h, 300 mg/kg): 99%
C[C@@H]1CN(c2ccc(C#N)c3ncccc23)C[C@H](CN2CCC(N3CCCC3)CC2)O1 [ER-888480] | 1 |  | 100 | 100 | 98 | IC50 [2]: 87 nM; % Suppression vs. Vehicle ([3]; 6 h, 11 mg/kg): 85%; % Suppression vs. Vehicle ([3]; 19 h, 11 mg/kg): 63%; % Suppression vs. Vehicle ([3]; 19 h, 33 mg/kg): 89%
CC1CN(c2ccc(C#N)c3ncccc23)CC(CN2CC(N3CCCC3)C2)O1 (centres unmarked) [ER-889469] | 13 | 97 | 100 | 100 | 73 | % Suppression vs. Vehicle ([3]; 3 h, 33 mg/kg): 100%; % Suppression vs. Vehicle ([3]; 3 h, 100 mg/kg): 100%
CC1CN(c2ccc(C#N)c3ncccc23)CC(CN2CC(N3CCCCC3)C2)O1 (centres unmarked) [ER-889470] | 12 | 152 | 96 | 100 | 78 | % Suppression vs. Vehicle ([3]; 3 h, 33 mg/kg): 100%; % Suppression vs. Vehicle ([3]; 3 h, 100 mg/kg): 98%
C[C@@H]1CN(c2ccc(C#N)c3ncccc23)C[C@H](CN2CCCN(C)CC2)O1 [ER-889601] |  |  | 95 | 90 | 96 | IC50 [2]: 179 nM; % Suppression vs. Vehicle ([3]; 3 h, 100 mg/kg): 96%
CC1CN(c2ccc(C#N)c3ncccc23)CC(CN2CCC(N3CCOCC3)CC2)O1 (centres unmarked) [ER-890093] | 22 | 88 | 92 | 95 |  | % Suppression vs. Vehicle ([3]; 3 h, 100 mg/kg): 92%; % Suppression vs. Vehicle ([3]; 13 h, 33 mg/kg): 98%; % Suppression vs. Vehicle ([3]; 13 h, 100 mg/kg): 100%
CC1CN(c2ccc(C#N)c3ncccc23)CC(CN2CCC(N3CCCCC3)C2)O1.Cl.Cl (centres unmarked) [ER-890311] |  |  |  |  |  | IC50 [2]: 428 nM; % Suppression vs. Vehicle ([3]; 3 h, 33 mg/kg): 88%; % Suppression vs. Vehicle ([3]; 19 h, 3.67 mg/kg): 0%; % Suppression vs. Vehicle ([3]; 19 h, 11 mg/kg): 0%; % Suppression vs. Vehicle ([3]; 19 h, 33 mg/kg): 0%
C[C@@H]1CN(c2ccc(C#N)c3ncccc23)C[C@H](CN2CCN(C)[C@@H](C)C2)O1 [ER-890831] | 1 |  |  |  |  | IC50 [2]: 170 nM
C[C@@H]1CN(c2ccc(C#N)c3ncccc23)C[C@H](CN2CC[C@H](N3CCCC3)C2)O1 [ER-893881] | 9 | 270 | 82 | 99 |  | % Suppression vs. Vehicle ([3]; 3 h, 33 mg/kg): 95%; % Suppression vs. Vehicle ([3]; 13 h, 33 mg/kg): 0%; % Suppression vs. Vehicle ([3]; 13 h, 100 mg/kg): 19%
CC1CN(c2ccc(C#N)c3ncccc23)CC(CN2CCC(NS(C)(=O)=O)CC2)O1 (centres unmarked) [ER-893948] | 150 | 420 |  |  |  | 
CC(=O)NC1CN(C[C@H]2CN(c3ccc(C#N)c4ncccc34)C[C@@H](C)O2)C1 [ER-894152] | 175 | 660 |  |  |  | 
C[C@@H]1CN(c2ccc(C#N)c3ncccc23)C[C@H](CN2CCNC(C)(C)C2)O1 [ER-894655] | 5 | 84 |  |  |  | 
CC1CN(c2ccc(C#N)c3ncccc23)CC(CN2CCN(C)C(C)(C)C2)O1 (centres unmarked) [ER-894656] | 7 | 23 |  |  |  | 
CCNC(=O)C1CCN(CC2CN(c3ccc(C#N)c4ncccc34)CC(C)O2)CC1 (centres unmarked) [ER-895204] | 23 | 51 | 98 |  |  | % Suppression vs. Vehicle ([3]; 13 h, 33 mg/kg): 22%; % Suppression vs. Vehicle ([3]; 13 h, 100 mg/kg): 43%; % Suppression vs. Vehicle ([3]; 13 h, 300 mg/kg): 99%; % Suppression vs. Vehicle ([3]; 24 h, 33 mg/kg): 39%; % Suppression vs. Vehicle ([3]; 24 h, 100 mg/kg): 39%; % Suppression vs. Vehicle ([3]; 24 h, 300 mg/kg): 78%
CC1CN(c2ccc(C#N)c3ncccc23)CC(COc2ncccn2)O1 (centres unmarked) [ER-895325] | 26 | 120 |  |  |  | 
